This is an account of results in USRE46943E1, “Radioprotector compounds and methods” (PETER MACCALLUM CANCER INSTITUTE, priority 2010, dated 2018).

Like-named read-outs stand apart in the source and are kept apart here.

Series [1] has as its system transformed human keratinocyte cell line (FEP 1811). Briefly: Clonogenic survival cell culture assay for radioprotective activity (12 Gy 137Cs gamma irradiation). The format is cell-based. The conditions noted are these: 12 Gy; for DMF10 (dose modification factor at a concentration of 10 microM of radioprotector): 10 microM radioprotector; for DMFm (dose modification factor at maximum protection): DMF=Dp/Dc at survival level Sm; for PF (protection factor = Sm/So): survival at maximum protection vs irradiation only. An excerpt: PF is defined as a ratio of survival at maximum protection Sm and survival after irradiation only So: PF=Sm/So. DMF is defined as a ratio of doses that result in survival level of Sm in the presence Dp and the absence Dc of radioprotector: DMF=Dp/Dc. DMF10 is define in a similar way except that instead of Sm a survival at 10 microM of radioprotector is used.
PF (Protection Factor) is defined as a ratio of survival at maximum protection Sm and survival after irradiation only So:PF=Sm/So. DMF (Dose Modification Factor) is defined as a ratio of doses that result in survival level of Sm in the presence (Dp) and the absence (Dc) of radioprotector: DMF=Dp/Dc. DMF10 is defined in a similar way except that instead of Sm a survival at 10 microM of radioprotector is used.
(§1) • i. […] In appropriate cases, tautomers are drawn to illustrate potential hydrogen-bond donating configurations into the minor groove of DNA. • ii. 2-Amino-4-(5′-(4″-methylpiperazin-1″-yl)benzimidazol-2′-yl)aniline was prepared by hydrogenation of 4-(5′-(4″-methylpiperazin-1″-yl)benzimidazol-2′-yl)-2-nitroaniline, using a modification of the method of Kelly et al, Aust. […] 2-Amino-4-(5′-(piperidin-1″-yl)benzimidazol-2′-yl)aniline was prepared by hydrogenation of 2-nitro-4-(5′-(piperidin-1″-yl)benzimidazol-2′-yl)aniline, using a modification of the method of Kelly et al, Aust. […] Ethyl 4-amino-3-nitrobenzenecarboximidate hydrochloride was prepared by reaction of 4-amino-3-nitrobenzonitrile with dry HCl gas in ethanol, using the method of Kelly et al, Aust. […] 5-(4′-Methylpiperazin-1′-yl)-2-nitroaniline was prepared using a modification of the method of Kelly et al, Aust. […] The following chemicals were obtained from the chemical suppliers indicated: 2-furaldehyde (Aldrich), 2-pyridinecarboxaldehyde (Aldrich), 3-fluoropyridine-2-carbaldehyde (Maybridge), 3-trifluoromethylpyridine-2-carboxaldehyde (Apollo Scientific), 6-methyl-2-pyridinecarboxaldehyde (Matrix Scientific), 5-methylpyridine-2-carbonitrile (Apollo Scientific), 4-methyl-2-pyridinecarbonitrile (Aldrich), 4-chloro-2-pyridinecarbonitrile (Aldrich), 4-methoxypicolinonitrile (Combi-Blocks), pyrazinecarbonitrile (Aldrich), 2-quinolinecarbonitrile (Aldrich), 3-isoquinolinecarbonitrile (Aldrich), 1-isoquinolinecarboxylic acid (Aldrich), indazole-3-carboxylic acid (Aldrich), 2-hydroxynicotinic acid (Aldrich), 4-hydroxypiperidine (Aldrich), 1-methylhomopiperazine (Aldrich), 3-hydroxypiperidine (Aldrich), 4-(N-BOC-amino)piperidine (Aldrich), 4-methoxypiperidine (Acros), 4-methyl-3-nitrobenzonitrile (Aldrich), 5-chloro-2-nitroaniline (Aldrich), 2-cyanopyridine (Aldrich), methyl 4-amino-2-methoxybenzoic acid (Aldrich), 4-(trifluoromethyl)-2-pyridinecarbonitrile (Matrix Scientific), cis-2,6-dimethylmorphoiline (Acros), 5-(trifluoromethyl)-2-pyridinecarbonitrile (Advanced Chemical Intermediates) and 5-fluoro-2-pyridinecarbonitrile (Advanced Chemical Intermediates). • ix. […] Melting points were determined using an Electrothermal melting point apparatus, and are uncorrected. […] The abbreviations s for singlet, d for doublet, t for triplet, q for quartet, br for broad and m for muitiplet were used in the assignments of multiplicity. A value approximating the centre of a multiplet is quoted. […] The addition of a few drops of acetic acid to methanol-d4 solutions was used to enhance solubility for the acquisition of ^13C nmr spectra. Mass spectra were recorded on a Micromass Quattro II mass spectrometer and accurate mass analyses were carried out by the School of Chemistry at the University of Melbourne on a Finnigan LTQ-FT model high resolution mass spectrometer. Thin layer chromatography (TLC) was carried out using Merck silica gel 60 F254 aluminium sheets or Merck neutral aluminium oxide 150 F254 sheets. Flash column chromatography was carried out using Ajax silica gel 230-400 mesh. • xi.

For series [2] the test system is unchanged. Kind of series: Clonogenic survival cell culture assay for cytotoxicity. The format is cell-based. As to conditions: un-irradiated keratinocytes, one hour drug exposure, colonies counted after eight days, read-out: C50 (concentration of radioprotector that results in 50% clonogenic survival). How it is done:
as §1, with “xi. […] The details are described in detail in Martin et al (4) (the disclosure of which is included herein in its entirety by way of reference), but briefly, mid-log phase monolayer cultures are incubated with various concentrations of the test drugs for one hour, after which the monolayers are washed and dispersed into single cell suspensions using pronase, and finally appropriate numbers of cells are dispensed into Petri dishes. Colonies are counted after eight days incubation. […] The irradiation (with a dose rate of 0.6 Gy per minute) is started 30 minutes after addition of the test drug. After completion of irradiation, incubation of cultures is continued until the total time of exposure to the drug reaches 60 minutes. Cultures are then washed and plated for clonogenic survival as described for the cytotoxicity experiments.” for “xi.”

Setting [3] is: Homo sapiens, Keratinocyte, light or radiation study.

In the case of `CN1CCN(c2ccc3nc(-c4ccc5nc(-c6ccco6)[nH]c5c4)[nH]c3c2)CC1` [Example 1, 2-(5′-(5″-(4′″-Methylpiperazin-1′″-yl)benzimidazol-2″-yl)benzimidazol-2′-yl)furan], the melting point is 202 to 224 °C (dec.). In series [1], the “DMF10 (dose modification factor at a concentration of 10 microM of radioprotector)” value (from here on “DMF10”) stood at 1.14, the “DMFm (dose modification factor at maximum protection)” value (“DMFm” below) was 1.37 and the “PF (protection factor = Sm/So)” value came to 7.7. In addition, the IC50 in series [2] (setting [3]) came out at 57.3 µM.

Take `c1ccc(-c2nc3ccc(-c4nc5ccc(N6CCCCC6)cc5[nH]4)cc3[nH]2)nc1` [Example 24, 2-(5′-(5″-(Piperidin-1′″-yl)benzimidazol-2″-yl)benzimidazol-2′-yl)pyridine]: the melting point lay in the range of 196 to 203 °C. Moreover, in series [1], the “DMF10” value came out at 1.35, the “DMFm” value was 1.42 and the “PF (protection factor = Sm/So)” value is given as 7.5. Besides, in series [2] (setting [3]), the IC50 stood at 24 µM.

In the case of `c1ccc(-c2nc3ccc(-c4nc5ccc(NN6CCOCC6)cc5[nH]4)cc3[nH]2)nc1` [Example 42, 2-(5′-(5″-(morpholinoamino)benzimidazol-2″-yl)benzimidazol-2′-yl)pyridine], the melting point is 198 to 205 °C. Also, in series [1], the “DMF10” value is 1.38, the “DMFm” value stood at 1.86 and the “PF (protection factor = Sm/So)” value amounted to 17.8. In addition, the IC50 in series [2] (setting [3]) worked out at 206 µM.

`CN1CCN(c2ccc3nc(-c4ccc5nc(-c6cc(Cl)ccn6)[nH]c5c4)[nH]c3c2)CC1` [Example 8, 4-Chloro-2-(5′-(5″-(4′″-methylpiperazin-1′″-yl)benzimidazol-2″-yl)benzimidazol-2′-yl)pyridine]: the melting point is 195 °C (dec.). Moreover, in series [1], the “DMF10” value is 2.12, the “DMFm” value is listed as 2.20 and the “PF (protection factor = Sm/So)” value worked out at 39.6. The IC50 in series [2] (setting [3]) was found to be 80 µM.

On to `CN1CCN(c2ccc3nc(-c4ccc5nc(-c6cc(N(C)C)ccn6)[nH]c5c4)[nH]c3c2)CC1` [Example 10, 4-Dimethylamino-2-(5′-(5″-(4′″-methylpiperazin-1′″-yl)benzimidazol-2″-yl)benzimidazol-2′-yl)pyridine], for which the melting point lay within 216 to 220 °C. Besides, in series [1], the “DMF10” value came out at 1.39, the “DMFm” value is on record as 1.51 and the “PF (protection factor = Sm/So)” value was 10.1. The IC50 in series [2] (setting [3]) turned out to be 18.6 µM.

For `CN(C)C(=O)N1CCN(c2ccc3[nH]c(-c4ccc5[nH]c(-c6ccccn6)nc5c4)nc3c2)CC1` [Example 37, 2-(5′-(5″-(4′″-(dimethylcarbamoyl)piperazin-1 ′″-yl)benzimidazol-2″-yl)benzimidazol-2′-yl)pyridine], in series [1], the “DMF10” value came to 1.49, the “DMFm” value worked out at 1.82 and the “PF (protection factor = Sm/So)” value is 34.6. Besides, the IC50 in series [2] was 120 µM.

As to `Cc1cccc(-c2nc3ccc(-c4nc5ccc(N6CCN(C)CC6)cc5[nH]4)cc3[nH]2)n1` [Example 5, 6-Methyl-2-(5′-(5″-(4′″-methylpiperazin-1′″-yl)benzimidazol-2″-yl)benzimidazol-2′-yl)pyridine], in series [1], the “DMF10” value is on record as 1.12, the “DMFm” value turned out to be 1.22 and the “PF (protection factor = Sm/So)” value was 2.5. Also, the IC50 in series [2] (setting [3]) was 73.3 µM.

For the compound `COCCN1CCN(c2ccc3nc(-c4ccc5nc(-c6ccccn6)[nH]c5c4)[nH]c3c2)CC1` [Example 40, 2-(5′-(5″-(4′″-(2″″-methoxyethyl)piperazin-1′″-yl)benzimidazol-2″-yl)benzimidazol-2′-yl)pyridine], in series [1], the “DMF10” value amounted to 1.77, the “DMFm” value came to 198 and the “PF (protection factor = Sm/So)” value turned out to be 20.2. Besides, the IC50 in series [2] (setting [3]) turned out to be 80.7 µM.

In the case of `CN(C)Nc1ccc2[nH]c(-c3ccc4[nH]c(-c5ccccn5)nc4c3)nc2c1` [Example 46, 2-(5′-(5″-(2′″,2′″-dimethylhydrazinyl)benzimidazol-2″-yl)benzimidazol-2′-yl)pyridine], in series [1], the “DMF10” value came out at 1.29, the “DMFm” value was found to be 1.71 and the “PF (protection factor = Sm/So)” value was 27.9. For the same compound, the IC50 in series [2] (setting [3]) amounted to 74.6 µM.

The term melting point denotes the temperature, or range, at which the solid turns liquid.
